Measurements as given in PubChem BioAssay AID1259407 (Chemical Carcinogenesis Research Information System (CCRIS), 2018).
Active and inactive are the calls of the source. How the calls were made is not given here.

System: CCRIS mutagenicity, Ames/micronucleus/aberration tests
Test: CCRIS mutagenicity studies
[1] = Test System: AMES SALMONELLA TYPHIMURIUM, Strain/Indicator: TA98, Metabolic Activation: NONE, Method: STANDARD PLATE
[2] = Test System: AMES SALMONELLA TYPHIMURIUM, Strain/Indicator: TA98, Metabolic Activation: RAT, LIVER, S-9, AROCLOR 1254, Method: STANDARD PLATE
[3] = Test System: AMES SALMONELLA TYPHIMURIUM, Strain/Indicator: TA100, Metabolic Activation: NONE, Method: STANDARD PLATE
[4] = Test System: AMES SALMONELLA TYPHIMURIUM, Strain/Indicator: TA100, Metabolic Activation: RAT, LIVER, S-9, AROCLOR 1254, Method: STANDARD PLATE
[5] = Test System: AMES SALMONELLA TYPHIMURIUM, Strain/Indicator: TA1535, Metabolic Activation: NONE, Method: STANDARD PLATE
[6] = Test System: AMES SALMONELLA TYPHIMURIUM, Strain/Indicator: TA1535, Metabolic Activation: RAT, LIVER, S-9, AROCLOR 1254, Method: STANDARD PLATE
[7] = Test System: AMES SALMONELLA TYPHIMURIUM, Strain/Indicator: TA1537, Metabolic Activation: NONE, Method: STANDARD PLATE
[8] = Test System: AMES SALMONELLA TYPHIMURIUM, Strain/Indicator: TA1537, Metabolic Activation: RAT, LIVER, S-9, AROCLOR 1254, Method: STANDARD PLATE
[9] = Test System: AMES SALMONELLA TYPHIMURIUM, Strain/Indicator: TA1538, Metabolic Activation: NONE, Method: STANDARD PLATE
[10] = Test System: AMES SALMONELLA TYPHIMURIUM, Strain/Indicator: TA1538, Metabolic Activation: RAT, LIVER, S-9, AROCLOR 1254, Method: STANDARD PLATE
[11] = Test System: MOUSE LYMPHOMA, Strain/Indicator: L5178Y (TK+/TK-), Metabolic Activation: NONE, Method: SUSPENSION/PLATE
[12] = Test System: MOUSE LYMPHOMA, Strain/Indicator: L5178Y (TK+/TK-), Metabolic Activation: RAT, LIVER, S-9, AROCLOR 1254, Method: SUSPENSION/PLATE
[13] = Test System: AMES SALMONELLA TYPHIMURIUM, Strain/Indicator: TA100, Metabolic Activation: NONE, Method: PREINCUBATION

Clc1nnc(Cl)c2ccccc12
mutagenic call (Test System: AMES SALMONELLA TYPHIMURIUM, Strain/Indicator: TA98, Metabolic Activation: HAMSTER, LIVER, S-9, AROCLOR 1254, Method: STANDARD PLATE): inactive; negative
mutagenic call [1]: inactive; negative
mutagenic call [2]: inactive; negative
mutagenic call (Test System: AMES SALMONELLA TYPHIMURIUM, Strain/Indicator: TA100, Metabolic Activation: HAMSTER, LIVER, S-9, AROCLOR 1254, Method: STANDARD PLATE): inactive; negative
mutagenic call [3]: inactive; negative
mutagenic call [4]: inactive; negative
mutagenic call (Test System: AMES SALMONELLA TYPHIMURIUM, Strain/Indicator: TA1535, Metabolic Activation: HAMSTER, LIVER, S-9, AROCLOR 1254, Method: STANDARD PLATE): inactive; negative
mutagenic call [5]: inactive; negative
mutagenic call [6]: inactive; negative
mutagenic call (Test System: AMES SALMONELLA TYPHIMURIUM, Strain/Indicator: TA1537, Metabolic Activation: HAMSTER, LIVER, S-9, AROCLOR 1254, Method: STANDARD PLATE): inactive; negative
mutagenic call [7]: inactive; negative
mutagenic call [8]: inactive; negative
mutagenic call (Test System: AMES SALMONELLA TYPHIMURIUM, Strain/Indicator: TA1538, Metabolic Activation: HAMSTER, LIVER, S-9, AROCLOR 1254, Method: STANDARD PLATE): inactive; negative
mutagenic call [9]: inactive; negative
mutagenic call [10]: inactive; negative
mutagenic call [11]: active; positive. reevaluation of results: inconclusive
mutagenic call [12]: active; positive. reevaluation of results: positive

Cc1cc(N)c(C)cc1N
mutagenic call [1]: inactive; negative
mutagenic call [2]: active; positive
mutagenic call [3]: inactive; negative
mutagenic call [4]: inactive; negative
mutagenic call [5]: inactive; negative
mutagenic call [6]: inactive; negative
mutagenic call [7]: inactive; negative
mutagenic call [8]: inactive; negative
mutagenic call [9]: inactive; negative
mutagenic call [10]: inactive; negative

CCC1(CC)C(=O)NC(=O)NC1=O
mutagenic call (End Point: IN VITRO MICRONUCLEUS, Test System: CHL/IU CELLS, Metabolic Activation: NONE): active; positive

OCC(O)CI (centres undefined)
mutagenic call (Test System: AMES SALMONELLA TYPHIMURIUM, Strain/Indicator: TA98, Metabolic Activation: HAMSTER, LIVER, S-9, AROCLOR 1254 (30%), Method: PREINCUBATION): inactive; negative
mutagenic call (Test System: AMES SALMONELLA TYPHIMURIUM, Strain/Indicator: TA98, Metabolic Activation: NONE, Method: PREINCUBATION): inactive; negative
mutagenic call (Test System: AMES SALMONELLA TYPHIMURIUM, Strain/Indicator: TA98, Metabolic Activation: RAT, LIVER, S-9, AROCLOR 1254 (30%), Method: PREINCUBATION): inactive; negative
mutagenic call (Test System: AMES SALMONELLA TYPHIMURIUM, Strain/Indicator: TA100, Metabolic Activation: HAMSTER, LIVER, S-9, AROCLOR 1254 (30%), Method: PREINCUBATION): active; positive
mutagenic call [13]: active; positive
mutagenic call (Test System: AMES SALMONELLA TYPHIMURIUM, Strain/Indicator: TA100, Metabolic Activation: RAT, LIVER, S-9, AROCLOR 1254 (30%), Method: PREINCUBATION): active; positive

O=[N+]([O-])c1ccc2[nH]c3ccc([N+](=O)[O-])cc3c2c1
mutagenic call (Test System: AMES SALMONELLA TYPHIMURIUM, Strain/Indicator: TA98(NR), Metabolic Activation: NONE, Method: STANDARD PLATE): active; positive
mutagenic call (Test System: AMES SALMONELLA TYPHIMURIUM, Strain/Indicator: TA98(NR), Metabolic Activation: RAT, LIVER, S-9, AROCLOR 1254, Method: STANDARD PLATE): active; positive
mutagenic call [1]: active; positive
mutagenic call [2]: active; positive

O=P1(Oc2ccccc2)OCc2ccccc2O1 (centres undefined)
mutagenic call [3]: active; positive
mutagenic call (Test System: AMES SALMONELLA TYPHIMURIUM, Strain/Indicator: TA100, Metabolic Activation: RAT, LIVER, MICROSOMES, Method: STANDARD PLATE): active; positive

CC1=C[C@@H]2c3cccc4[nH]cc(c34)C[C@H]2N(C)C1
mutagenic call [2]: active; positive
mutagenic call [3]: inactive; negative
mutagenic call [4]: active; positive
mutagenic call [8]: inactive; negative

O=C1c2ccccc2-c2ccc3ccccc3c21
mutagenic call [1]: inactive; negative
mutagenic call [2]: inactive; negative
mutagenic call [3]: inactive; negative
mutagenic call [4]: inactive; negative

Cc1cc(O)c2c(c1O)C(=O)c1cc(O)cc(O)c1C2=O
mutagenic call [7]: inactive; negative
mutagenic call (Test System: AMES SALMONELLA TYPHIMURIUM, Strain/Indicator: TA1537, Metabolic Activation: RAT, LIVER, S-9, PCB, Method: STANDARD PLATE): inactive; negative

COc1c(Cl)c(Cl)c(Cl)c(Cl)c1Cl
mutagenic call (Test System: AMES SALMONELLA TYPHIMURIUM, Strain/Indicator: TA98, Metabolic Activation: HAMSTER, LIVER, S-9, AROCLOR 1254 (10%), Method: PREINCUBATION): inactive; negative
mutagenic call (Test System: AMES SALMONELLA TYPHIMURIUM, Strain/Indicator: TA98, Metabolic Activation: MOUSE, LIVER, S-9, AROCLOR 1254, Method: PREINCUBATION): inactive; negative
mutagenic call (Test System: AMES SALMONELLA TYPHIMURIUM, Strain/Indicator: TA98, Metabolic Activation: RAT, LIVER, S-9, AROCLOR 1254 (10%), Method: PREINCUBATION): inactive; negative
mutagenic call (Test System: AMES SALMONELLA TYPHIMURIUM, Strain/Indicator: TA100, Metabolic Activation: HAMSTER, LIVER, S-9, AROCLOR 1254 (10%), Method: PREINCUBATION): inactive; negative
mutagenic call (Test System: AMES SALMONELLA TYPHIMURIUM, Strain/Indicator: TA100, Metabolic Activation: MOUSE, LIVER, S-9, AROCLOR 1254, Method: PREINCUBATION): inactive; negative
mutagenic call [13]: inactive; negative
mutagenic call (Test System: AMES SALMONELLA TYPHIMURIUM, Strain/Indicator: TA100, Metabolic Activation: RAT, LIVER, S-9, AROCLOR 1254 (10%), Method: PREINCUBATION): inactive; negative
mutagenic call (Test System: AMES SALMONELLA TYPHIMURIUM, Strain/Indicator: TA1535, Metabolic Activation: HAMSTER, LIVER, S-9, AROCLOR 1254 (10%), Method: PREINCUBATION): inactive; negative
mutagenic call (Test System: AMES SALMONELLA TYPHIMURIUM, Strain/Indicator: TA1535, Metabolic Activation: NONE, Method: PREINCUBATION): inactive; negative
mutagenic call (Test System: AMES SALMONELLA TYPHIMURIUM, Strain/Indicator: TA1535, Metabolic Activation: RAT, LIVER, S-9, AROCLOR 1254 (10%), Method: PREINCUBATION): inactive; negative
mutagenic call (Test System: AMES SALMONELLA TYPHIMURIUM, Strain/Indicator: TA1537, Metabolic Activation: HAMSTER, LIVER, S-9, AROCLOR 1254 (10%), Method: PREINCUBATION): inactive; negative
mutagenic call (Test System: AMES SALMONELLA TYPHIMURIUM, Strain/Indicator: TA1537, Metabolic Activation: NONE, Method: PREINCUBATION): active; positive
mutagenic call (Test System: AMES SALMONELLA TYPHIMURIUM, Strain/Indicator: TA1537, Metabolic Activation: RAT, LIVER, S-9, AROCLOR 1254 (10%), Method: PREINCUBATION): inactive; negative
mutagenic call (Test System: E. COLI, Strain/Indicator: WP2, Metabolic Activation: MOUSE, LIVER, S-9, AROCLOR 1254, Method: PREINCUBATION): inactive; negative
mutagenic call (Test System: E. COLI, Strain/Indicator: WP2, Metabolic Activation: NONE, Method: PREINCUBATION): inactive; negative
mutagenic call (Test System: E. COLI, Strain/Indicator: WP2 UVRA, Metabolic Activation: MOUSE, LIVER, S-9, AROCLOR 1254, Method: PREINCUBATION): inactive; negative
mutagenic call (Test System: E. COLI, Strain/Indicator: WP2 UVRA, Metabolic Activation: NONE, Method: PREINCUBATION): inactive; negative
mutagenic call [11]: inactive; negative
mutagenic call [12]: active; positive
